This test has as its target T1, human recombinant mGluR5 (Homo sapiens, UniProt P41594).
T1 construct: expressed in transfected cells; host or cells: HEK 293 cell line, cultured with tetracycline, hygromycin and geneticin; tetracycline is withdrawn 3-7 days before the assay
Kind of test: positive modulation of mGluR5, calcium based FLIPR assay. It counts as cell-based. As to conditions: EC50 of the modulation; HEK 293 cell line expressing human recombinant mGluR5; peak height of Ca fluorescence signal after glutamate at approx. 5% basal stimulation; read-out: EC50. The procedure, abridged:
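HEK 293 cells expressing human recombinant mGluR5, tetracycline-free before assay, loaded with Calcium-4 dye in Ringer solution pH 7.4. Compounds (1% DMSO final) added for 5 min, then glutamate at about 5% of maximal effect; FLIPR peak Ca signal scaled between 1% DMSO (100%) and 10 μM CDPPB (200%) controls, EC50 by nonlinear regression.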

T1 sequence (P41594 21-1212): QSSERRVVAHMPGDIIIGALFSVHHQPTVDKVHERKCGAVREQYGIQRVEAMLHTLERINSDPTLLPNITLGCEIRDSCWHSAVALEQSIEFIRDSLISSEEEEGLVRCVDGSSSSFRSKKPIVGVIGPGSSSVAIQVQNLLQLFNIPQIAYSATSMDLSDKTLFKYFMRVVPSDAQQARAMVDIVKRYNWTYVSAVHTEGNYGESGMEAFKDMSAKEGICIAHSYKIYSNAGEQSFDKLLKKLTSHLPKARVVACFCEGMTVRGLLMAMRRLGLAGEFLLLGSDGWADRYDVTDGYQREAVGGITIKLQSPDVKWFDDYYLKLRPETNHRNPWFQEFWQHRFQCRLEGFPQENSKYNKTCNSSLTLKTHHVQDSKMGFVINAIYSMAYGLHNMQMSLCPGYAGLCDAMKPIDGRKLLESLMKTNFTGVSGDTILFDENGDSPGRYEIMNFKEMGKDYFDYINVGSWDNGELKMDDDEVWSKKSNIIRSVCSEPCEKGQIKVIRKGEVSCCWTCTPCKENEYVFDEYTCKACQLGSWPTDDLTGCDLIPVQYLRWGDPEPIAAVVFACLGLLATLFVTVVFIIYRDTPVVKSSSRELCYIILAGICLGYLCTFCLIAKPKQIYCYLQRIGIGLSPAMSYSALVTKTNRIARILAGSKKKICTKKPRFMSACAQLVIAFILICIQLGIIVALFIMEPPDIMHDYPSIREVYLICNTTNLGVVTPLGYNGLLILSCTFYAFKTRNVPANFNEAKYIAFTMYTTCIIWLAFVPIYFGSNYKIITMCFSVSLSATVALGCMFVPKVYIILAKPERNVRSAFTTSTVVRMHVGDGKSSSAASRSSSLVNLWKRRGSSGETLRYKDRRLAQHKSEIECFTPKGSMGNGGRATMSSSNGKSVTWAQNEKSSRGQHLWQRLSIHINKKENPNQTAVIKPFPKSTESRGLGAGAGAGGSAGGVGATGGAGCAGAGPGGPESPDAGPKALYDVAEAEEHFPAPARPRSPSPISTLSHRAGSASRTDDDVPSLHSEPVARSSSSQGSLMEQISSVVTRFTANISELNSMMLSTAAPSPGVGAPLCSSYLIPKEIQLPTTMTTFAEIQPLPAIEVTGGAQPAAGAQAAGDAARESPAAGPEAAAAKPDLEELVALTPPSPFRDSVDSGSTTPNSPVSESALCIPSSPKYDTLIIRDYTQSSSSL

`Cc1nc2c(s1)CCN(C(=O)Cn1nc(-c3ccc(F)c(C)c3)nc1C(C)C)CC2` [Example 7.03.074.]: the EC50 is 321 nM.
The result for `Cc1nc2c(o1)CCN(C(=O)Cn1nc(-c3ccc(F)c(C)c3)nc1-c1ccccc1)CC2` [Example 7.02.86.] reads 28 nM.
Take `O=C(Cn1nc(-c2ccc(F)cc2)nc1-c1ccc(F)cc1)N1CCC(c2ccccn2)C1` (stereo not shown) [Example 7.02.64.]: the EC50 is 976 nM.
The value for `CN1C(=O)N(C2CCN(C(=O)Cn3nc(-c4ccc(F)cc4)nc3-c3ccc(F)cc3)CC2)Cc2ccccc21` [Example 7.02.25.] was 1860 nM; that for `CCCc1nc(-c2ccc(F)c(C)c2)nn1CC(=O)N1Cc2nc(C)sc2C1` [Example 7.03.071.] was 1170 nM.
`Cc1cc(-c2nc(-c3ccccc3)n(CC(=O)N3CCc4ccc(N)cc4CC3)n2)ccc1F` [Example 7.02.88.]: the EC50 stood at 180 nM.
The value for `Cc1cc(-c2nc(C3CCCCC3)n(CC(=O)N3CCc4nc(N)sc4CC3)n2)ccc1F` [Example 7.03.061.] was 369 nM; that for `CC(C)c1noc(C2CCN(C(=O)Cn3nc(-c4ccc(F)cc4)nc3-c3ccc(F)cc3)CC2)n1` [Example 7.02.03.] was 1220 nM; that for `CCCCCc1nc(-c2ccc(F)c(C)c2)nn1CC(=O)N1CCN(c2cccc(OC)c2)C(=O)C1` [Example 7.03.109.] was 422 nM.
Turning to `Cc1nc2c(s1)C(C)CN(C(=O)Cn1nc(-c3ccc(F)cc3)nc1-c1ccc(F)cc1)CC2` (stereo not shown) [Example 7.03.037.], the EC50 worked out at 312 nM.
The result for `O=C(Cn1nc(-c2ccc(F)cc2)nc1-c1ccc(F)cc1)N1CCN(C2=NCCCS2)CC1` [Example 7.05.01., 2-(3,5-bis-(4-Fluoro-phenyl)-(1,2,4)triazol-1-yl]-1-[4-(5,6-dihydro-4H-(1,3)thiazin-2-yl)-piperazin-1-yl]-ethanone] reads 1710 nM; that for `COc1ccc2c(c1)CCN(C(=O)Cn1nc(-c3ccc(F)cc3)nc1-c1ccc(F)cc1)C2` [Example 7.02.44.], 211 nM; that for `O=C(Cn1nc(-c2ccc(F)cc2)nc1-c1ccc(F)cc1)N1CCN(c2nccc3occc23)CC1` [Example 07.03.137.], 339 nM.
The result for `Cc1cc(-c2nc(CC(C)C)n(CC(=O)N3CCc4nc(N)sc4CC3)n2)ccc1F` [Example 7.03.099.] reads 269 nM; that for `O=C(Cn1nc(-c2ccc(F)cc2)nc1-c1ccc(F)cc1)N1CCN(c2nccc3sccc23)CC1` [Example 07.03.136.], 498 nM.
The result for `COc1cc2c(cc1OC)CCN(C(=O)Cn1nc(-c3ccc(F)cc3)nc1-c1ccc(F)cc1)CC2` [Example 7.02.62.] reads 311 nM.

The values are drawn from patent US8642774B2, “Compounds” (Boehringer Ingelheim International GmbH, priority 2011, dated 2014).
